From patent US20070015183A1, “Biomarkers for huntington's disease” (The General Hospital Corporation, priority 2005, published 2007)

Assays:
[1] = system: transgenic mouse models of HD; conditions: Gardian et al., J. Biol. Chem. 280: 556-563, 2005; cited from earlier work
[2] = HD patients, as a result of phenylbutyrate treatments
From the text: (§1) Peripheral blood samples were collected from 62 HD subjects and 53 age- and gender-matched healthy controls. The HD group included a cohort of 9 early asymptomatic carriers of the gene mutation, as determined by genetic testing, consisting of 5 females and 4 males with the average age of 22.5±2.6 years. An additional group of 21 late presymptomatic carriers of the HD mutation was also included in the study. Of these, 11 were females and 10 were males with the average age of 39±6.1. An additional 32 patients were symptomatic, 17 females and 15 males, with the average age of 49.6±5.9. The determination of the neurological status of the HD patients utilized the Huntington's Disease Rating Scale (UHDRS) performed by an experienced HD neurologist. All of the symptomatic patients were in Stage I or II of disease, as determined by the total functional capacity scores (TFC 7-12). All samples were obtained in accordance with the Institutional Review Boards and participants gave written informed consent. Blood samples were also obtained from 12 symptomatic patients (7 males and 5 females) participating in a dose-finding study of the HDAC inhibitor, sodium phenylbutyrate (SPB 11, Scandinavian Designs, Sellersville, Pa.) at Oregon Health and Science University. The dosage of sodium phenylbutyrate in these subjects ranged from 12 to 18 grams per day administered in 3 doses.

[3] = system: 12-gene marker set (ANXA1, AXOT, CAPZA1, HIF1A, JJAZ1, P2Y5, PCNP, ROCK1, SF3B1, SP3, TAF7, YIPPEE) mRNA in blood; conditions: 12 HD patients, after 4 weeks of treatment, QRT-PCR, P<0.05
From the text: as §1

[4] = system: Huntington's disease symptoms; conditions: HD patients, dose-finding study not powered to detect alterations in symptoms or progression
From the text: as §1

total and differential cell blood counts [2]: no consistent differences
SMILES: O=C([O-])CCCc1ccccc1.[Na+] [phenylbutyrate, sodium phenylbutyrate]
neuroprotective effects [1]: significant neuroprotective effects
expression of each individual gene of the marker set in blood after treatment compared to untreated samples [3]: 8 out of 12 genes were significantly decreased and statistically significant decrease in expression of 8 out of 12 genes
symptomatic effects [4]: no significant symptomatic effects
